In US11072598B2, “Somatostatin modulators and uses thereof” (CRINETICS PHARMACEUTICALS, INC., priority 2017, dated 2021):

Assays:
hSSTR4 = molecular target: T1, hSSTR4 (Homo sapiens, UniProt P31391); experiment: inhibition of cAMP via hSSTR4; type: cell-based; details: selectivity for inhibition of cAMP via hSSTR2 vs. hSSTR4
T1 construct: expressed in transfected cells
Excerpt: General overview: All five SSTR subtypes are Gi coupled G-protein coupled receptors (GPCRs) that lead to decreases in intracellular cyclic AMP (cAMP) when activated by an agonist. Therefore, measurement of intracellular cAMP levels can be used to assess whether compounds of the invention are agonists of SSTR subtypes (John Kelly, Troy Stevens, W. Joseph Thompson, and Roland Seifert, Current Protocols in Pharmacology, 2005, 2.2.1-2.2). One example of an intracellular cAMP assay is described below. cAMP assay protocol:
Four days prior to the assay, 5,000 Chinese hamster ovary cells (CHO-K1, ATCC #CCL-61) stably expressing the human somatostatin receptor subtype 2 are plated in each well of a 96-well tissue culture-treated plate in Ham's F12 growth media (ThermoFisher #10-080-CM) supplemented with 10% donor bovine serum (Gemini Bio-Products #100-506), 100 U/mL penicillin; 100 ug/mL streptomycin; 2 mM L-glutamine (Gemini Bio-Products #400-110) and 0.2 mg/mL hygromycin B (GoldBio #31282-04-9). The cells are cultured at 37° C., 5% CO2 and 95% humidity. On the day of the assay, the media is aspirated and the cells are treated with 50 μL of 1.6 μM NKH477 (Sigma #N3290) plus various dilutions of compounds of the invention in assay buffer [1× Hank's Balanced Salt Solution (ThermoFisher #SH3058802), 0.5 mM HEPES pH 7.4, 0.1% bovine serum albumin, 0.2 mM 3-Isobutyl-1-methylxanthine (IBMX, VWR #200002-790)]. The cells are incubated for 20 minutes at 37° C. (the final concentration of the compounds of the invention are typically 0-10,000 nM). The cells are treated with 50 μL of lysis buffer (HRTF cAMP kit, Cisbio). The lysate is transferred to 384-well plates and cAMP detection and visualization antibodies are added and incubated for 1-24 hours at room temperature. The time-resolved fluorescent signal is read with a Tecan M1000Pro multiplate reader. The intracellular cAMP concentrations are calculated by regression to a standard curve and are plotted vs. the concentration of the compounds of the invention and the EC50 of the compounds are calculated using standard methods. All data manipluations are in GraphPad Prism v6.

[1] = molecular target: T2, human somatostatin receptor subtype 2 (Homo sapiens, UniProt P30874); experiment: cAMP functional assay for SSTR2 agonists; type: cell-based; details: inhibition of cAMP activities via human SST2 receptor (SSTR2), CHO-K1 cells; read-out: EC50
T2 construct: expressed in transfected cells
T2 sequence (P30874 whole entry): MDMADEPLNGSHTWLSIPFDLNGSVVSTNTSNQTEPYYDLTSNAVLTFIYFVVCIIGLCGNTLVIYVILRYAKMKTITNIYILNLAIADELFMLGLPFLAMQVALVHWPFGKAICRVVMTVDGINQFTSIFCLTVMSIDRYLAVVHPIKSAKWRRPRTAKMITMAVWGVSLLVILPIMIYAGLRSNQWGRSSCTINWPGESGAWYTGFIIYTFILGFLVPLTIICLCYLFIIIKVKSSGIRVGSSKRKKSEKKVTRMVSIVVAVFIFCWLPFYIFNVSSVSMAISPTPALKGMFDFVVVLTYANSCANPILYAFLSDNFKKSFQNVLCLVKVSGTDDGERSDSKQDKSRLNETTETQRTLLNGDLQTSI
How it was run: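 CHO-K1 cells stably expressing human SSTR2 were treated for 20 min at 37 °C with compound plus NKH477 (added as 1.6 μM) in HBSS with IBMX. Intracellular cAMP was measured by HTRF against a standard curve. EC50 values came from concentration-response curves.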

T1 sequence (P31391 whole entry): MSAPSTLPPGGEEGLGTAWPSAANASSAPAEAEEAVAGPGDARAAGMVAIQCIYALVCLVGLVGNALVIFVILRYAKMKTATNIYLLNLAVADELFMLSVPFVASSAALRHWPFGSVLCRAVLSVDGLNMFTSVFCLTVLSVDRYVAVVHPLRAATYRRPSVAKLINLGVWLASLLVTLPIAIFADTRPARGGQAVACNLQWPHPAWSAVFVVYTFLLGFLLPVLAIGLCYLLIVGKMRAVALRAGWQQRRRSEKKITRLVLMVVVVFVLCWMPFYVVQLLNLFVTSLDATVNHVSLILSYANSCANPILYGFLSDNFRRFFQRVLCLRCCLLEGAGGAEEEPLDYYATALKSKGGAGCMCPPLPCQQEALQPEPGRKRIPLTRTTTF

Row | SMILES | hSST4/hSST2 (ratio) (hSSTR4) | EC50 [1]
1 | COc1cc(F)c2nc(-c3c(N)ncc(-c4cc(C)cc(F)c4)c3N3CCC(N)CC3)[nH]c2c1 [Compound 1-59, 4-(4-aminopiperidin-1-yl)-5-(3-fluoro-5-methylphenyl)-3-(4-fluoro-6-methoxy-1H-1,3-benzodiazol-2-yl)pyridin-2-amine] | b (between 15 and 50) | < 0.01 µM
2 | Cc1cc(F)cc(-c2cnc(N)c(-c3nc4cc(F)c(F)cc4[nH]3)c2N2CCC(N)CC2)c1 [Compound 1-3, 4-(4-aminopiperidin-1-yl)-3-(5,6-difluoro-1H-1,3-benzodiazol-2-yl)-5-(3-fluoro-5-methylphenyl)pyridin-2-amine] | b (between 15 and 50) | < 0.01 µM
3 | CNc1ncc(-c2cc(C)cc(F)c2)c(N2CCC(N)CC2)c1-c1nc2cccc(OC)c2[nH]1 [Compound 1-71, 4-(4-aminopiperidin-1-yl)-5-(3-fluoro-5-methylphenyl)-3-(7-methoxy-1H-1,3-benzodiazol-2-yl)-N-methylpyridin-2-amine] | c (between 2.5 and 15) | < 0.01 µM
4 | COc1ncc(-c2cc(C)cc(Cl)c2)c(N2CCC(N)CC2)c1/C=N/OC(C)(C)C [Compound 2-12, 1-{3-[(1E)-[(tert-butoxy)imino]methyl]-5-(3-chloro-5-methylphenyl)-2-methoxypyridin-4-yl}piperidin-4-amine] |  | > 0.1 µM
5 | C=Cn1c(-c2c(N)ncc(-c3cc(C)cc(F)c3)c2N2CCC(N)CC2)nc2cc(F)c(F)cc21 [Compound 1-4, 4-(4-aminopiperidin-1-yl)-3-(1-ethenyl-5,6-difluoro-1H-1,3-benzodiazol-2-yl)-5-(3-fluoro-5-methylphenyl)pyridin-2-amine] |  | < 0.01 µM
6 | Nc1ncc(-c2cc(F)cc(F)c2)c(N2CCC(N)CC2)c1-c1nc2cc(OC(F)(F)F)ccc2[nH]1 [Compound 1-86, 4-(4-aminopiperidin-1-yl)-5-(3,5-difluorophenyl)-3-[5-(trifluoromethoxy)-1H-1,3-benzodiazol-2-yl]pyridin-2-amine] |  | < 0.01 µM
7 | COC(=O)Nc1cccc2nc(-c3c(N)ncc(-c4cc(C)cc(F)c4)c3N3CCC(N)CC3)[nH]c12 [Compound 1-27, methyl N-{2-[2-amino-4-(4-aminopiperidin-1-yl)-5-(3-fluoro-5-methylphenyl)pyridin-3-yl]-1H-1,3-benzodiazol-7-yl}carbamate] |  | < 0.01 µM
8 | N#Cc1cc(F)c2[nH]c(-c3c(N)ncc(-c4cc(F)cc(Cl)c4)c3N3CCC(N)CC3)nc2c1 [Compound 1-85, 2-[2-amino-4-(4-aminopiperidin-1-yl)-5-(3-chloro-5-fluorophenyl)pyridin-3-yl]-7-fluoro-1H-1,3-benzodiazole-5-carbonitrile] |  | < 0.01 µM
9 | C#Cc1ccc2[nH]c(-c3c(N)ncc(-c4cc(C)cc(F)c4)c3N3CCC(N)CC3)nc2c1 [Compound 1-65, 4-(4-aminopiperidin-1-yl)-3-(5-ethynyl-1H-1,3-benzodiazol-2-yl)-5-(3-fluoro-5-methylphenyl)pyridin-2-amine] |  | < 0.01 µM
10 | Cc1cc(F)cc(-c2cnc(N)c(-c3nc4cc(S(C)(=O)=O)ccc4[nH]3)c2N2CCC(N)CC2)c1 [Compound 1-53, 4-(4-aminopiperidin-1-yl)-5-(3-fluoro-5-methylphenyl)-3-(5-methanesulfonyl-1H-1,3-benzodiazol-2-yl)pyridin-2-amine] |  | < 0.01 µM
11 | Cc1cc(F)cc(-c2cnc(N)c(-c3nc4cc(Cl)ccc4[nH]3)c2N2CC[C@@H](N)[C@H](C#N)C2)c1 (relative stereo) [Compound 1-42, trans-4-amino-1-[2-amino-3-(5-chloro-1H-1,3-benzodiazol-2-yl)-5-(3-fluoro-5-methylphenyl)pyridin-4-yl]piperidine-3-carbonitrile] |  | < 0.01 µM
12 | C#Cc1cc(F)c2[nH]c(-c3c(N)ncc(-c4cc(C)cc(F)c4)c3N3CCC(N)CC3)nc2c1 [Compound 1-66, 4-(4-aminopiperidin-1-yl)-3-(5-ethynyl-7-fluoro-1H-1,3-benzodiazol-2-yl)-5-(3-fluoro-5-methylphenyl)pyridin-2-amine] |  | < 0.01 µM
13 | CO[C@@H]1CN(c2c(-c3cc(C)cc(F)c3)cnc(N)c2-c2nc3cc(Cl)ccc3[nH]2)CC[C@H]1N (relative stereo) [Compound 1-7, 4-[trans-4-amino-3-methoxypiperidin-1-yl]-3-(5-chloro-1H-1,3-benzodiazol-2-yl)-5-(3-fluoro-5-methylphenyl)pyridin-2-amine] |  | < 0.01 µM
14 | Cc1cc(F)cc(-c2cnc(N)c(-c3nc4cc(C#N)cc(F)c4[nH]3)c2N2CCC(N)CC2)c1 [Compound 1-69, 2-[2-amino-4-(4-aminopiperidin-1-yl)-5-(3-fluoro-5-methylphenyl)pyridin-3-yl]-7-fluoro-1H-1,3-benzodiazole-5-carbonitrile] |  | < 0.01 µM
15 | Cc1cc(F)cc(-c2cnc(N)c(-c3nc4ccc(F)c(F)c4[nH]3)c2N2CCC(N)CC2)c1 [Compound 1-15, 4-(4-aminopiperidin-1-yl)-3-(6,7-difluoro-1H-1,3-benzodiazol-2-yl)-5-(3-fluoro-5-methylphenyl)pyridin-2-amineine] |  | < 0.01 µM
16 | Cc1cc(C)cc(-c2cnc(N)c(-c3nc4cc(F)cc(F)c4[nH]3)c2N2CCC(N)CC2)c1 [Compound 1-78, 4-(4-aminopiperidin-1-yl)-3-(5,7-difluoro-1H-1,3-benzodiazol-2-yl)-5-(3,5-dimethylphenyl)pyridin-2-amine] |  | < 0.01 µM
17 | COc1cc(F)cc2nc(-c3c(N)ncc(-c4cccc(Cl)c4)c3N3CCC(N)CC3)[nH]c12 [Compound 1-92, 4-(4-aminopiperidin-1-yl)-5-(3-chlorophenyl)-3-(5-fluoro-7-methoxy-1H-1,3-benzodiazol-2-yl)pyridin-2-amine] |  | < 0.01 µM

Second part, the compound after the results:

Row | hSST4/hSST2 (ratio) (hSSTR4) | EC50 [1] | SMILES
18 | a (above 50) | < 0.01 µM | COc1ncc(-c2cc(C)cc(F)c2)c(N2CCC(N)CC2)c1-c1nc2cc(F)cc(F)c2[nH]1 [Compound 2-5, 1-[3-(5,7-difluoro-1H-1,3-benzodiazol-2-yl)-5-(3-fluoro-5-methylphenyl)-2-methoxypyridin-4-yl]piperidin-4-amine]
19 | b (between 15 and 50) | < 0.01 µM | COc1cc(F)cc2nc(-c3c(N(C)C)ncc(-c4cc(C)cc(F)c4)c3N3CCC(N)CC3)[nH]c12 [Compound 4-6, 4-(4-aminopiperidin-1-yl)-3-(5-fluoro-7-methoxy-1H-1,3-benzodiazol-2-yl)-5-(3-fluoro-5-methylphenyl)-N,N-dimethylpyridin-2-amine]
20 |  | < 0.01 µM | Cc1cc(F)cc(-c2cnc(N(C)C)c(-c3nc4cc(F)cc(F)c4[nH]3)c2N2CCC(N)CC2)c1 [Compound 4-5, 4-(4-aminopiperidin-1-yl)-3-(5,7-difluoro-1H-1,3-benzodiazol-2-yl)-5-(3-fluoro-5-methylphenyl)-N,N-dimethylpyridin-2-amine]
21 |  | < 0.01 µM | CNC1CCN(c2c(-c3cc(C)cc(F)c3)cnc(N)c2-c2nc3cc(C#N)cc(F)c3[nH]2)CC1 [Compound 4-3, 2-[2-amino-5-(3-fluoro-5-methylphenyl)-4-[4-(methylamino)piperidin-1-yl]pyridin-3-yl]-7-fluoro-1H-1,3-benzodiazole-5-carbonitrile]
22 |  | < 0.01 µM | Cc1cc(F)cc(-c2cnnc(-c3[nH]c4cc(C#N)ccc4c3Cl)c2N2CCC(N)CC2)c1 [Compound 3-24, 2-[4-(4-aminopiperidin-1-yl)-5-(3-fluoro-5-methylphenyl)pyridazin-3-yl]-3-chloro-1H-indole-6-carbonitrile]
23 |  | 0.01 to 0.1 µM | COc1ncc(-c2cc(C)cc(C#N)c2)c(N2CCC(N)CC2)c1-c1nc2cc(Cl)ccc2[nH]1 [Compound 2-6, 3-[4-(4-aminopiperidin-1-yl)-5-(5-chloro-1H-1,3-benzodiazol-2-yl)-6-methoxypyridin-3-yl]-5-methylbenzonitrile]
24 |  | < 0.01 µM | Cc1cc(F)cc(-c2cnnc(-c3cc4ccc(Cl)cc4[nH]3)c2N2CCC(N)CC2)c1 [Compound 3-2, 1-[3-(6-chloro-1H-indol-2-yl)-5-(3-fluoro-5-methylphenyl)pyridazin-4-yl]piperidin-4-amine]
25 |  | < 0.01 µM | Cc1cc(F)cc(-c2cnnc(-c3nc4cc(C#N)ccc4[nH]3)c2N2CCC(N)CC2)c1 [Compound 3-22, 2-[4-(4-aminopiperidin-1-yl)-5-(3-fluoro-5-methylphenyl)pyridazin-3-yl]-1H-1,3-benzodiazole-5-carbonitrile]
